Test results reported in patent publication US20020111274A1, “1-alkyl-3-[1-(substituted phenyl) benzotriazol-6-yl] uracils” (BASF Aktiengesellschaft, priority 2000, published 2002).

How the values were obtained:
Design in all cases: scale not given here
ABUTH Velvetleaf [1] = test: Postemergence herbicidal evaluation, ABUTH; format: in vivo, Abutilon theophrasti, Medic.; details: postemergence spray, rated about two-three weeks after treatment
Method in brief: (§1)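 Postemergence spray, 40 psi nozzle, on ~2-week seedlings. Carrier: acetone/water 80/20, 1.0% methylated seed oil; dose ~0.006–0.400 kg/ha. Scored visually at 2–3 weeks.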

GALAP Galium [2] = test: Preemergence herbicidal evaluation, GALAP; format: in vivo, Galium aparine; details: preemergence
Method in brief: (§2)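 Compound applied preemergence as an aqueous acetone spray onto freshly planted cups, dose equivalent approx. 0.013 to 0.800 kg/ha. Evaluation by rating at weeks 4–5.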

CASOB Sicklepod [3] = test: Postemergence herbicidal evaluation, CASOB; format: in vivo, Cassia obtusifolia, L.; details: postemergence spray, rated about two-three weeks after treatment
Method in brief: as §1

ABUTH Velvetleaf [4] = test: Preemergence herbicidal evaluation, ABUTH; format: in vivo, Abutilon theophrasti, Medic.; details: preemergence
Method in brief: as §2

SETVI Foxtail, Green [5] = test: Preemergence herbicidal evaluation, SETVI; format: in vivo, Setaria viridis, (L.) Beau; details: preemergence
Method in brief: as §2

GLXMAW Soybean, Williams [6] = test: Preemergence herbicidal evaluation, GLXMAW; format: in vivo, Glycine max, (L.) Merr. cv Williams; details: preemergence
Method in brief: as §2

AMBEL Ragweed, Common [7] = test: Preemergence herbicidal evaluation, AMBEL; format: in vivo, Ambrosia artemisifolia, L.; details: preemergence
Method in brief: as §2

ZEAMX Corn, Field [8] = test: Preemergence herbicidal evaluation, ZEAMX; format: in vivo, Zea mays, L. (Sammel-Bezeichnung); details: preemergence
Method in brief: as §2

[9] = tested on: IPOHE Morningglory, Ivyleaf; test: Preemergence herbicidal evaluation, IPOHE; format: in vivo, Ipomoea hederacea, (L.) Jacq.; details: preemergence
Method in brief: as §2

[10] = tested on: CHEAL Lambsquarters, Common; test: Preemergence herbicidal evaluation, CHEAL; format: in vivo, Chenopodium album, L.; details: preemergence
Method in brief: as §2

[11] = tested on: CHEAL Lambsquarters, Common; test: Postemergence herbicidal evaluation, CHEAL; format: in vivo, Chenopodium album, L.; details: postemergence spray, rated about two-three weeks after treatment
Method in brief: as §1

AMBEL Ragweed, Common [12] = test: Postemergence herbicidal evaluation, AMBEL; format: in vivo, Ambrosia artemisifolia, L.; details: postemergence spray, rated about two-three weeks after treatment
Method in brief: as §1

ECHOG Barnyardgrass [13] = test: Postemergence herbicidal evaluation, ECHOG; format: in vivo, Echinochloa crus-galli, (L.) Beau; details: postemergence spray, rated about two-three weeks after treatment
Method in brief: as §1

SETVI Foxtail, Green [14] = test: Postemergence herbicidal evaluation, SETVI; format: in vivo, Setaria viridis, (L.) Beau; details: postemergence spray, rated about two-three weeks after treatment
Method in brief: as §1

CASOB Sicklepod [15] = test: Preemergence herbicidal evaluation, CASOB; format: in vivo, Cassia obtusifolia, L.; details: preemergence
Method in brief: as §2

ECHOG Barnyardgrass [16] = test: Preemergence herbicidal evaluation, ECHOG; format: in vivo, Echinochloa crus-galli, (L.) Beau; details: preemergence
Method in brief: as §2

[17] = tested on: TRZAWR Wheat, Winter, cv Riband; test: Preemergence herbicidal evaluation, TRZAWR; format: in vivo, Triticum aestivum; details: preemergence
Method in brief: as §2

ORYSAT Rice, Tebonnet [18] = test: Postemergence herbicidal evaluation, ORYSAT; format: in vivo, Oryza sativa, (L.); details: postemergence spray, rated about two-three weeks after treatment
Method in brief: as §1

ORYSAT Rice, Tebonnet [19] = test: Preemergence herbicidal evaluation, ORYSAT; format: in vivo, Oryza sativa, (L.); details: preemergence
Method in brief: as §2

[20] = tested on: IPOHE Morningglory, Ivyleaf; test: Postemergence herbicidal evaluation, IPOHE; format: in vivo, Ipomoea hederacea, (L.) Jacq.; details: postemergence spray, rated about two-three weeks after treatment
Method in brief: as §1

ZEAMX Corn, Field [21] = test: Postemergence herbicidal evaluation, ZEAMX; format: in vivo, Zea mays, L. (Sammel-Bezeichnung); details: postemergence spray, rated about two-three weeks after treatment
Method in brief: as §1

GLXMAW Soybean, Williams [22] = test: Postemergence herbicidal evaluation, GLXMAW; format: in vivo, Glycine max, (L.) Merr. cv Williams; details: postemergence spray, rated about two-three weeks after treatment
Method in brief: as §1

GALAP Galium [23] = test: Postemergence herbicidal evaluation, GALAP; format: in vivo, Galium aparine; details: postemergence spray, rated about two-three weeks after treatment
Method in brief: as §1

[24] = tested on: TRZAWR Wheat, Winter, cv Riband; test: Postemergence herbicidal evaluation, TRZAWR; format: in vivo, Triticum aestivum; details: postemergence spray, rated about two-three weeks after treatment
Method in brief: as §1

COC(=O)COc1ccccc1-n1nnc2cc(F)c(-n3c(=O)cc(C(F)(F)F)n(C)c3=O)cc21 [Example 35]
5.0: Postemergence herbicidal rating ABUTH (ABUTH Velvetleaf [1]; 0.008 kg/ha) | Postemergence herbicidal rating ABUTH (ABUTH Velvetleaf [1]; 0.016 kg/ha) | GALAP herbicidal rating (GALAP Galium [2]; rate 0.125 kg/ha) | AMBEL herbicidal rating (AMBEL Ragweed, Common [7]; rate 0.125 kg/ha) | IPOHE herbicidal rating ([9]; rate 0.062 kg/ha) | Postemergence herbicidal rating AMBEL (AMBEL Ragweed, Common [12]; 0.016 kg/ha) | Postemergence herbicidal rating ZEAMX (ZEAMX Corn, Field [21]; 0.008 kg/ha) | Postemergence herbicidal rating GLXMAW (GLXMAW Soybean, Williams [22]; 0.008 kg/ha)
6.5: SETVI herbicidal rating (SETVI Foxtail, Green [5]; rate 0.062 kg/ha)
8.0: Postemergence herbicidal rating SETVI (SETVI Foxtail, Green [14]; 0.062 kg/ha)
7.5: Postemergence herbicidal rating ZEAMX (ZEAMX Corn, Field [21]; 0.062 kg/ha) | Postemergence herbicidal rating GLXMAW (GLXMAW Soybean, Williams [22]; 0.062 kg/ha)
3.5: AMBEL herbicidal rating (AMBEL Ragweed, Common [7]; rate 0.062 kg/ha) | Postemergence herbicidal rating ORYSAT (ORYSAT Rice, Tebonnet [18]; 0.016 kg/ha) | ORYSAT herbicidal rating (ORYSAT Rice, Tebonnet [19]; rate 0.062 kg/ha) | Postemergence herbicidal rating TRZAWR ([24]; 0.008 kg/ha)
5.5: ABUTH herbicidal rating (ABUTH Velvetleaf [4]; rate 0.125 kg/ha) | Postemergence herbicidal rating ZEAMX (ZEAMX Corn, Field [21]; 0.032 kg/ha) | Postemergence herbicidal rating TRZAWR ([24]; 0.032 kg/ha)
2.5: GLXMAW herbicidal rating (GLXMAW Soybean, Williams [6]; rate 0.125 kg/ha)
0.0: GALAP herbicidal rating (GALAP Galium [2]; rate 0.016 kg/ha) | GALAP herbicidal rating (GALAP Galium [2]; rate 0.032 kg/ha) | GALAP herbicidal rating (GALAP Galium [2]; rate 0.062 kg/ha) | ABUTH herbicidal rating (ABUTH Velvetleaf [4]; rate 0.016 kg/ha) | SETVI herbicidal rating (SETVI Foxtail, Green [5]; rate 0.016 kg/ha) | GLXMAW herbicidal rating (GLXMAW Soybean, Williams [6]; rate 0.032 kg/ha) | AMBEL herbicidal rating (AMBEL Ragweed, Common [7]; rate 0.016 kg/ha) | AMBEL herbicidal rating (AMBEL Ragweed, Common [7]; rate 0.032 kg/ha) | ZEAMX herbicidal rating (ZEAMX Corn, Field [8]; rate 0.016 kg/ha) | ZEAMX herbicidal rating (ZEAMX Corn, Field [8]; rate 0.032 kg/ha) | IPOHE herbicidal rating ([9]; rate 0.016 kg/ha) | CHEAL herbicidal rating ([10]; rate 0.016 kg/ha) | CASOB herbicidal rating (CASOB Sicklepod [15]; rate 0.016 kg/ha) | CASOB herbicidal rating (CASOB Sicklepod [15]; rate 0.032 kg/ha) | ECHCG herbicidal rating (ECHOG Barnyardgrass [16]; rate 0.016 kg/ha) | ECHCG herbicidal rating (ECHOG Barnyardgrass [16]; rate 0.032 kg/ha) | TRZAWR herbicidal rating ([17]; rate 0.016 kg/ha) | TRZAWR herbicidal rating ([17]; rate 0.032 kg/ha) | ORYSAT herbicidal rating (ORYSAT Rice, Tebonnet [19]; rate 0.016 kg/ha) | ORYSAT herbicidal rating (ORYSAT Rice, Tebonnet [19]; rate 0.032 kg/ha)
1.0: Postemergence herbicidal rating CASOB (CASOB Sicklepod [3]; 0.008 kg/ha) | Postemergence herbicidal rating CASOB (CASOB Sicklepod [3]; 0.016 kg/ha) | GLXMAW herbicidal rating (GLXMAW Soybean, Williams [6]; rate 0.016 kg/ha) | ZEAMX herbicidal rating (ZEAMX Corn, Field [8]; rate 0.062 kg/ha) | Postemergence herbicidal rating CHEAL ([11]; 0.008 kg/ha) | Postemergence herbicidal rating SETVI (SETVI Foxtail, Green [14]; 0.008 kg/ha) | TRZAWR herbicidal rating ([17]; rate 0.062 kg/ha) | TRZAWR herbicidal rating ([17]; rate 0.125 kg/ha) | Postemergence herbicidal rating GALAP (GALAP Galium [23]; 0.008 kg/ha) | Postemergence herbicidal rating GALAP (GALAP Galium [23]; 0.016 kg/ha)
7.0: Postemergence herbicidal rating CHEAL ([11]; 0.062 kg/ha) | Postemergence herbicidal rating ECHCG (ECHOG Barnyardgrass [13]; 0.032 kg/ha) | Postemergence herbicidal rating ORYSAT (ORYSAT Rice, Tebonnet [18]; 0.062 kg/ha) | Postemergence herbicidal rating TRZAWR ([24]; 0.062 kg/ha)
6.0: Postemergence herbicidal rating CHEAL ([11]; 0.032 kg/ha) | Postemergence herbicidal rating ORYSAT (ORYSAT Rice, Tebonnet [18]; 0.032 kg/ha) | ORYSAT herbicidal rating (ORYSAT Rice, Tebonnet [19]; rate 0.125 kg/ha) | Postemergence herbicidal rating GLXMAW (GLXMAW Soybean, Williams [22]; 0.032 kg/ha)
1.5: SETVI herbicidal rating (SETVI Foxtail, Green [5]; rate 0.032 kg/ha) | GLXMAW herbicidal rating (GLXMAW Soybean, Williams [6]; rate 0.062 kg/ha)
2.0: Postemergence herbicidal rating CASOB (CASOB Sicklepod [3]; 0.032 kg/ha) | Postemergence herbicidal rating CASOB (CASOB Sicklepod [3]; 0.062 kg/ha) | Postemergence herbicidal rating ECHCG (ECHOG Barnyardgrass [13]; 0.008 kg/ha) | CASOB herbicidal rating (CASOB Sicklepod [15]; rate 0.125 kg/ha) | ECHCG herbicidal rating (ECHOG Barnyardgrass [16]; rate 0.062 kg/ha)
3.0: ZEAMX herbicidal rating (ZEAMX Corn, Field [8]; rate 0.125 kg/ha) | Postemergence herbicidal rating ORYSAT (ORYSAT Rice, Tebonnet [18]; 0.008 kg/ha) | Postemergence herbicidal rating GALAP (GALAP Galium [23]; 0.032 kg/ha) | Postemergence herbicidal rating TRZAWR ([24]; 0.016 kg/ha)
4.5: IPOHE herbicidal rating ([9]; rate 0.032 kg/ha) | ECHCG herbicidal rating (ECHOG Barnyardgrass [16]; rate 0.125 kg/ha) | Postemergence herbicidal rating ZEAMX (ZEAMX Corn, Field [21]; 0.016 kg/ha) | Postemergence herbicidal rating GLXMAW (GLXMAW Soybean, Williams [22]; 0.016 kg/ha)
4.0: ABUTH herbicidal rating (ABUTH Velvetleaf [4]; rate 0.032 kg/ha) | Postemergence herbicidal rating CHEAL ([11]; 0.016 kg/ha) | Postemergence herbicidal rating AMBEL (AMBEL Ragweed, Common [12]; 0.008 kg/ha) | Postemergence herbicidal rating ECHCG (ECHOG Barnyardgrass [13]; 0.016 kg/ha) | CASOB herbicidal rating (CASOB Sicklepod [15]; rate 0.062 kg/ha) | Postemergence herbicidal rating IPOHE ([20]; 0.016 kg/ha) | Postemergence herbicidal rating GALAP (GALAP Galium [23]; 0.062 kg/ha)
9.0: Postemergence herbicidal rating ABUTH (ABUTH Velvetleaf [1]; 0.032 kg/ha) | Postemergence herbicidal rating ABUTH (ABUTH Velvetleaf [1]; 0.062 kg/ha) | ABUTH herbicidal rating (ABUTH Velvetleaf [4]; rate 0.062 kg/ha) | SETVI herbicidal rating (SETVI Foxtail, Green [5]; rate 0.125 kg/ha) | IPOHE herbicidal rating ([9]; rate 0.125 kg/ha) | CHEAL herbicidal rating ([10]; rate 0.032 kg/ha) | CHEAL herbicidal rating ([10]; rate 0.062 kg/ha) | CHEAL herbicidal rating ([10]; rate 0.125 kg/ha) | Postemergence herbicidal rating AMBEL (AMBEL Ragweed, Common [12]; 0.032 kg/ha) | Postemergence herbicidal rating AMBEL (AMBEL Ragweed, Common [12]; 0.062 kg/ha) | Postemergence herbicidal rating ECHCG (ECHOG Barnyardgrass [13]; 0.062 kg/ha) | Postemergence herbicidal rating SETVI (SETVI Foxtail, Green [14]; 0.016 kg/ha) | Postemergence herbicidal rating SETVI (SETVI Foxtail, Green [14]; 0.032 kg/ha) | Postemergence herbicidal rating IPOHE ([20]; 0.008 kg/ha) | Postemergence herbicidal rating IPOHE ([20]; 0.032 kg/ha) | Postemergence herbicidal rating IPOHE ([20]; 0.062 kg/ha)
